# Measurements reported in patent publication US20240066027A1 (DOMAIN THERAPEUTICS, priority 2020, published 2024).
# Biological target: T1, human PAR-2 (hPAR-2) receptor expressed in HEK-293 T cells in an endogenous manner (Homo sapiens, UniProt P55085)
# T1 construct: human PAR-2 (hPAR-2) receptor expressed in HEK-293 T cells in an endogenous manner; endogenous in cells; host or cells: HEK-293 T cells
# T1 sequence (P55085 26-397): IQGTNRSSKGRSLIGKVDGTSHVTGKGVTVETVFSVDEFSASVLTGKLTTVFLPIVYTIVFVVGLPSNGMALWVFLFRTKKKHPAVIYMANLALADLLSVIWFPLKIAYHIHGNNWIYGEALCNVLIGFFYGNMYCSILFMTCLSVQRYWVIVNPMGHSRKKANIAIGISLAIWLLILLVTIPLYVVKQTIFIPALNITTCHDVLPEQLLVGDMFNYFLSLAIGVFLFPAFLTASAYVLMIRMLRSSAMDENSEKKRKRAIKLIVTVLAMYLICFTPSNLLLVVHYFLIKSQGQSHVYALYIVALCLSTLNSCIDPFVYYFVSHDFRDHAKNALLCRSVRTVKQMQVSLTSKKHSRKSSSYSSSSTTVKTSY
# Assay: In vitro human PAR-2 functional antagonist activity using calcium assays (Fluo4AM, FLIPR Tetra)
# Assay type: cell-based
# Settings: HEK-293 T cells stimulated by an EC80 of the 2-Furoyl-LIGRLO-NH2 peptide after 10 min incubation with compound; 20 concentrations, duplicate, two independent experiments
# Procedure, shortened: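 Antagonist activity was taken as the decrease in the calcium response to an EC80 of 2-Furoyl-LIGRLO-NH2, measured over 5 min. The agonist was added after a 10 min compound-alone step on the same plate. The HEK-293 T cells express PAR-2 endogenously and were loaded with 1 μM Fluo4AM. Signals were referenced to buffer and EC80-alone controls.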
row,IC50 [nM],SMILES
1,< 20,"Cc1cc(N2CCN(C(=O)c3ccc4c(-c5ccc(F)c(F)c5)cn(C(C)(C)C)c4n3)C(C)(C)C2)nc(C)c1C(=O)O [Example 191, 6-(4-(1-(tert-butyl)-3-(3,4-difluorophenyl)-1H-pyrrolo[2,3-b]pyridine-6-carbonyl)-3,3-dimethylpiperazin-1-yl)-2,4-dimethylnicotinic acid]"
2,20 to 10000,"CC1(C)C(=O)NCCN1C(=O)c1ccc2c(-c3ccc(Cl)c(F)c3)cn(C3CCOCC3)c2n1 [Example 30, 4-(3-(4-chloro-3-fluorophenyl)-1-(tetrahydro-2H-pyran-4-yl)-1H-pyrrolo[2,3-b]pyridine-6-carbonyl)-3,3-dimethylpiperazin-2-one]"
3,20 to 10000,"Cc1cc(N2CCN(C(=O)c3ccc4c(n3)c(CC(C)C)nn4-c3ccc(Cl)c(F)c3)C(C)(C)C2)nc(C)c1C(=O)O [Example 65, 6-(4-(1-(4-chloro-3-fluorophenyl)-3-isobutyl-1H-pyrazolo[4,3-b]pyridine-5-carbonyl)-3,3-dimethylpiperazin-1-yl)-2,4-dimethylnicotinic acid]"
4,20 to 10000,"CC1(C)CN(C(=O)c2ccc3c(-c4ccc(Cl)c(F)c4)cn(C(C)(C)C)c3n2)CCC1C(N)=O (centres unmarked) [Example 23, 1-(1-(tert-butyl)-3-(4-chloro-3-fluorophenyl)-1H-pyrrolo[2,3-b]pyridine-6-carbonyl)-3,3-dimethylpiperidine-4-carboxamide]"
5,20 to 10000,"CC(C)Cn1cc(-c2ccc3c(c2)OCO3)c2ccc(C(=O)N3CCNC(=O)C3(C)C)nc21 [Example 223, 4-(3-(benzo[d][1,3]dioxol-5-yl)-1-isobutyl-1H-pyrrolo[2,3-b]pyridine-6-carbonyl)-3,3-dimethylpiperazin-2-one]"
6,20 to 10000,"Cc1nn(-c2ccc(Cl)c(F)c2)c2ccc(C(=O)N3CCNC(=O)C3(C)C)nc12 [Example 71, 4-(1-(4-chloro-3-fluorophenyl)-3-methyl-1H-pyrazolo[4,3-b]pyridine-5-carbonyl)-3,3-dimethylpiperazin-2-one]"
7,< 20,"COC[C@H](C)n1cc(-c2ccc(Cl)c(F)c2)c2ccc(C(=O)N3CCN(c4cc(C)c(C(=O)O)c(C)n4)CC3(C)C)nc21 [Example 136, (S)-6-(4-(3-(4-chloro-3-fluorophenyl)-1-(1-methoxypropan-2-yl)-1H-pyrrolo[2,3-b]pyridine-6-carbonyl)-3,3-dimethylpiperazin-1-yl)-2,4-dimethylnicotinic acid]"
8,< 20,"Cc1cc(N2CCN(C(=O)c3ccc4c(-c5ccc(C(F)(F)F)c(F)c5)cn(C(C)(C)C)c4n3)C(C)(C)C2)nc(C)c1C(=O)O [Example 220, 6-(4-(1-(tert-butyl)-3-(3-fluoro-4-(trifluoromethyl)phenyl)-1H-pyrrolo[2,3-b]pyridine-6-carbonyl)-3,3-dimethylpiperazin-1-yl)-2,4-dimethylnicotinic acid]"
9,< 20,"CC(C)(C)c1cn(-c2ccc(Cl)c(F)c2)c2ccc(C(=O)N3CCNC(=O)C3(C)C)nc12 [Example 221, 4-(3-(tert-butyl)-1-(4-chloro-3-fluorophenyl)-1H-pyrrolo[3,2-b]pyridine-5-carbonyl)-3,3-dimethylpiperazin-2-one]"

row,SMILES,IC50 [nM]
1,"CC(C)(C)n1cc(-c2ccc(Cl)c(F)c2)c2ccc(C(=O)N3[C@@H]4CC[C@H]3CC(O)C4)nc21 (stereo partly drawn) [Example 11, (1-(tert-butyl)-3-(4-chloro-3-fluorophenyl)-1H-pyrrolo[2,3-b]pyridin-6-yl)((1R,3r,5S)-3-hydroxy-8-azabicyclo[3.2.1]octan-8-yl)methanone]",> 10000
2,"CCOP(=O)(O)c1ccc(N2CCN(C(=O)c3ccc4c(-c5ccc(Cl)c(F)c5)cn(C(C)(C)C)c4n3)C(C)(C)C2)nc1 [Example 195, ethyl hydrogen (6-(4-(1-(tert-butyl)-3-(4-chloro-3-fluorophenyl)-1H-pyrrolo[2,3-b]pyridine-6-carbonyl)-3,3-dimethylpiperazin-1-yl)pyridin-3-yl)phosphonate]",20 to 10000
